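How tested: cells in 96-well plates exposed to compound for 48 hours at five concentrations. GI50 = concentration required for 50% inhibition of growth.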 Activity calls are given as the source filed them. No stated cut-off is given here; in the data, active = GI50 up to about 1.1 µM and inactive = higher.
Legend:
Assay in all cases: NCI anticancer screen, dose series, 48 h
SK-MEL-5 = system: SK-MEL-5
HCT-116 = system: HCT-116
SF-268 = system: SF-268
IGROV-1 = system: IGROV-1
OVCAR-3 = system: OVCAR-3
EKVX = system: EKVX
DU-145 = system: DU-145
OVCAR-4 = system: OVCAR-4
OVCAR-8 = system: OVCAR-8
CCRF-CEM = system: CCRF-CEM
HT-29 = system: HT-29
T47D = system: T47D
K562 = system: K562
SNB-75 = system: SNB-75
MDA-MB-435 = system: MDA-MB-435
UO-31 = system: UO-31
SW-620 = system: SW-620
M14 = system: M14
SK-MEL-2 = system: SK-MEL-2
PC-3 = system: PC-3

Measured: GI50

CC(C)(C)OC(=O)NCCCC(=O)NC1(c2cc3ccccc3s2)CCCCC1
inactive: SK-MEL-5 5.89 µM | HCT-116 14 µM | SF-268 17.9 µM | IGROV-1 18 µM | OVCAR-3 16.3 µM | EKVX 8.26 µM | DU-145 24.8 µM | OVCAR-4 20.5 µM | OVCAR-8 19 µM | CCRF-CEM 11.4 µM | HT-29 13.1 µM | T47D 9.66 µM | K562 19.5 µM | SNB-75 5.11 µM | MDA-MB-435 15.4 µM | UO-31 4.61 µM | SW-620 15.8 µM | M14 18 µM

CN(CC(=O)O)c1ncc2c(n1)CCCC2
inactive: SK-MEL-5 > 100 µM | HCT-116 > 100 µM | SF-268 > 100 µM | IGROV-1 > 100 µM | OVCAR-3 > 100 µM | EKVX > 100 µM | DU-145 > 100 µM | OVCAR-4 > 100 µM | SK-MEL-2 > 100 µM | OVCAR-8 > 100 µM | CCRF-CEM > 100 µM | HT-29 > 100 µM | K562 > 100 µM | PC-3 > 100 µM | SNB-75 > 100 µM | MDA-MB-435 > 100 µM | UO-31 > 100 µM | SW-620 > 100 µM | M14 > 100 µM

N#Cc1c2c(c(Nc3cccc(C(F)(F)F)c3)n3c1nc1ccccc13)CCCC2
inactive: SK-MEL-5 60.8 µM | HCT-116 22.3 µM | SF-268 15.2 µM | OVCAR-3 14.6 µM | EKVX 20.8 µM | DU-145 21.3 µM | OVCAR-4 13.9 µM | OVCAR-8 15.1 µM | HT-29 16.2 µM | T47D > 100 µM | SNB-75 10.6 µM | MDA-MB-435 28.4 µM | SW-620 39.1 µM

NC(=O)CC1OC(=O)Cc2cc3c(c(O)c21)C(=O)c1c(O)cccc1C3=O (stereo unspecified)
inactive: SK-MEL-5 67.5 µM | HCT-116 > 100 µM | IGROV-1 69.3 µM | EKVX > 100 µM | DU-145 > 100 µM | OVCAR-4 > 100 µM | SK-MEL-2 > 100 µM | OVCAR-8 > 100 µM | CCRF-CEM 59.8 µM | HT-29 > 100 µM | T47D > 100 µM | K562 39.5 µM | PC-3 > 100 µM | MDA-MB-435 > 100 µM | UO-31 32.9 µM | SW-620 > 100 µM | M14 > 100 µM

C=C1OC(c2ccccc2NC)=NC12CCCCC2
inactive: SK-MEL-5 > 100 µM | HCT-116 > 100 µM | SF-268 > 100 µM | IGROV-1 > 100 µM | OVCAR-3 > 100 µM | EKVX > 100 µM | DU-145 > 100 µM | OVCAR-4 > 100 µM | OVCAR-8 > 100 µM | CCRF-CEM > 100 µM | HT-29 > 100 µM | T47D > 100 µM | K562 > 100 µM | PC-3 > 100 µM | MDA-MB-435 > 100 µM | UO-31 > 100 µM | SW-620 > 100 µM | M14 > 100 µM

O=Cc1c2c(cc3c1CC1(C3)Cc3cc4c(c(C=O)c3C1)CCC4)CCC2
inactive: SK-MEL-5 29.9 µM | HCT-116 14.7 µM | IGROV-1 17 µM | OVCAR-3 24.1 µM | EKVX 47.3 µM | OVCAR-4 20.9 µM | SK-MEL-2 21.3 µM | OVCAR-8 47.3 µM | CCRF-CEM 17 µM | HT-29 31.3 µM | T47D 46.1 µM | K562 14.4 µM | PC-3 30.3 µM | MDA-MB-435 45.6 µM | UO-31 2.37 µM | M14 32.6 µM

Cc1c(N/C=C(\C#N)C(=O)c2ccc(Cl)cc2)c(=O)n(-c2ccccc2)n1C
inactive: SK-MEL-5 66.7 µM | HCT-116 80.7 µM | IGROV-1 96.8 µM | OVCAR-3 72.1 µM | EKVX > 100 µM | DU-145 > 100 µM | OVCAR-4 > 100 µM | SK-MEL-2 62.1 µM | OVCAR-8 91.8 µM | CCRF-CEM 38.9 µM | K562 97.9 µM | PC-3 > 100 µM | SNB-75 > 100 µM | MDA-MB-435 34.9 µM | UO-31 64.9 µM | SW-620 90.4 µM | M14 > 100 µM

CN1C/C(=C\c2cccs2)C2=NN(c3ccccc3)C(c3cccs3)C2C1 (stereo unspecified)
inactive: SK-MEL-5 11.9 µM | HCT-116 2.7 µM | IGROV-1 4.06 µM | OVCAR-3 2.79 µM | EKVX 14.7 µM | DU-145 5.33 µM | OVCAR-4 4.47 µM | SK-MEL-2 25.5 µM | OVCAR-8 10.5 µM | CCRF-CEM 2 µM | HT-29 3.14 µM | T47D 76 µM | K562 3.96 µM | PC-3 10.7 µM | MDA-MB-435 1.61 µM | UO-31 50 µM | SW-620 4.6 µM | M14 3.91 µM
